Laboratory results taken from patent publication US12516064B2, “Tetrahydropyridopyrimidines and related analogs for inhibiting YAP/TAZ-TEAD” (THE KATHOLIEKE UNIVERSITEIT LEUVEN, priority 2022, dated 2026).

What was measured:
Type in all cases: cell-based
NCI-H2052 = experiment: Mesothelioma cell line proliferation assay (NCI-H2052); settings: Homo sapiens, 144 h; NCI-H2052 cells; 6 days with compound; cell viability by ATPlite
Protocol: (§1) Mesothelioma cell lines, NCI-H226 and NCI-H2052 (all sourced from the ATCC cell culture collection) are plated in 96-well plates (Corning® 96 Well White Polystyrene Microplate clear flat bottom, white polystyrene (TC-Treated)), at 1500 cells/well in full medium (RPMI 1640 ATCC modification with L-glutamine, HEPES, Phenol Red, Sodium Pyruvate, High glucose, Low sodium bicarbonate and 10% fetal bovine serum). Cells are incubated overnight at 37° C. in an incubator with 5% CO2. Then compounds, dissolved in DMSO, are added in dose-response. Cells are incubated with compound dilutions for another 6 days at 37° C. in an incubator with 5% CO2. Cell viability is quantitated using the ATPlite kit (Perkin-Elmer) and the luminescence is read-out using an Envision instrument (Perkin-Elmer). The amount of relative light units produced using the ATPlite kit is used to calculated percent of inhibition.
(§2) The activities of some example compounds are depicted in Table 9. The activity ranges A, B and C refer to EC50 values in the mesothelioma cell line proliferation assay as described as follows: “A”: EC50<1 μM; “B”: 1 μM≤EC50≤10 μM and “C”: EC50>10 μM; NT: not tested.

[1] = tested on: YAP/TAZ-TEAD transcription; experiment: Reporter gene assay for measuring the inhibition of YAP/TAZ-TEAD transcription; settings: Homo sapiens, HEK-293T; Hek293T cells transiently transfected with TEAD-responsive element luciferase reporter; 24 hours incubation
Outline: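 HEK293T cells transiently transfected with a TEAD-responsive luciferase reporter, plated onto pre-diluted compounds and incubated 24 h at 37 °C/5% CO2. Luminescence read after SteadyLite substrate; percent inhibition scaled between vehicle (0%) and positive control inhibitor (100%), giving IC50/EC50.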

NCI-H226 = experiment: Mesothelioma cell line proliferation assay (NCI-H226); settings: Homo sapiens, 144 h; NCI-H226 cells; 6 days with compound; cell viability by ATPlite
Protocol: as §1, §2

| Compound | EC50 (NCI-H2052) | EC50 [1] | EC50 (NCI-H226) |
| --- | --- | --- | --- |
| C=C(C)C(=O)N1CCc2c(nc(-c3ccc(C(F)(F)F)cc3)nc2-c2ccn(C)n2)C1 [Cpd. No. 77, 2-methyl-1-(4-(1-methyl-1H-pyrazol-3-yl)-2-(4-(trifluoromethyl)phenyl)-5,8-dihydropyrido[3,4-d]pyrimidin-7(6H)-yl)prop-2-en-1-one] | > 10 µM | < 1 µM | < 1 µM |
| CC#CC(=O)N1CCc2c(nc(-c3ccc(C(F)(F)F)cc3)nc2-c2ccn(C)n2)C1 [Cpd. No. 86, 1-(4-(1-methyl-1H-pyrazol-3-yl)-2-(4-(trifluoromethyl)phenyl)-5,8-dihydropyrido[3,4-d]pyrimidin-7(6H)-yl)but-2-yn-1-one] | < 1 µM | < 1 µM | < 1 µM |
| C=CC(=O)N1CCc2c(nc(-c3ccc(C(F)(F)F)cc3)nc2-c2cn(C)nn2)C1 [Cpd. No. 87, 1-(4-(1-methyl-1H-1,2,3-triazol-4-yl)-2-(4-(trifluoromethyl)phenyl)-5,8-dihydropyrido[3,4-d]pyrimidin-7(6H)-yl)prop-2-en-1-one] | 1 to 10 µM | < 1 µM | 1 to 10 µM |
| C=CC(=O)N1CCc2c(nc(-c3ccc(C(F)(F)F)cc3)nc2-c2cnn(C)n2)C1 [Cpd. No. 92, 1-(4-(2-methyl-2H-1,2,3-triazol-4-yl)-2-(4-(trifluoromethyl)phenyl)-5,8-dihydropyrido[3,4-d]pyrimidin-7(6H)-yl)prop-2-en-1-one] | 1 to 10 µM | < 1 µM | < 1 µM |

Further lines, results first:

| EC50 (NCI-H2052) | EC50 [1] | EC50 (NCI-H226) | Compound |
| --- | --- | --- | --- |
| 1 to 10 µM | < 1 µM | < 1 µM | Cn1ccc(-c2nc(-c3ccc(C(F)(F)F)cc3)nc3c2CCN(C(=O)C2CO2)C3)n1 (stereo not drawn) [Cpd. No. 88, (4-(1-methyl-1H-pyrazol-3-yl)-2-(4-(trifluoromethyl)phenyl)-5,8-dihydropyrido[3,4-d]pyrimidin-7(6H)-yl)(oxiran-2-yl)methanone] |
| > 10 µM | < 1 µM | < 1 µM | C=CC(=O)N1CCc2c(nc(C3CCC(F)(F)CC3)nc2-c2ccn(C)n2)C1 [Cpd. No. 89, 1-(2-(4,4-difluorocyclohexyl)-4-(1-methyl-1H-pyrazol-3-yl)-5,8-dihydropyrido[3,4-d]pyrimidin-7(6H)-yl)prop-2-en-1-one] |
| > 10 µM | 1 to 3 µM | > 10 µM | CCC(=O)N1CCc2c(nc(C3CCC(F)(F)CC3)nc2-c2ccn(C)n2)C1 [Cpd. No. 90, 1-(2-(4,4-difluorocyclohexyl)-4-(1-methyl-1H-pyrazol-3-yl)-5,8-dihydropyrido[3,4-d]pyrimidin-7(6H)-yl)propan-1-one] |
| > 10 µM | < 1 µM | < 1 µM | CC#CC(=O)N1CCc2c(nc(C3CCC(F)(F)CC3)nc2-c2ccn(C)n2)C1 [Cpd. No. 94, 1-(2-(4,4-difluorocyclohexyl)-4-(1-methyl-1H-pyrazol-3-yl)-5,8-dihydropyrido[3,4-d]pyrimidin-7(6H)-yl)but-2-yn-1-one] |
